Usually Ki stands for the dissociation constant of the complex between target and ligand, obtained from inhibition or displacement. Lower therefore signals higher affinity.

GST-Bcl-2, sequence (P10415 whole entry): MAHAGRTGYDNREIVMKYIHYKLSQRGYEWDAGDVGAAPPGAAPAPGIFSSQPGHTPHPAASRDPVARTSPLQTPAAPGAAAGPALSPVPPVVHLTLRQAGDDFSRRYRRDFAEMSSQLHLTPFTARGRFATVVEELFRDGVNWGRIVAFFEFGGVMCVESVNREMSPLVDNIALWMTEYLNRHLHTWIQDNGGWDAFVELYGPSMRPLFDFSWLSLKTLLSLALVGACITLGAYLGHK

In this experiment the target is GST-Bcl-2 (Homo sapiens, UniProt P10415). Put plainly: Time Resolved-Fluorescence Resonance Energy Transfer (TR-FRET) Bcl-2 binding assay. The conditions noted are these: GST-Bcl-2 1 nM, F-Bak peptide probe 100 nM, Tb-anti-GST 1 nM; 3 hours at room temperature; Ki by Wang's equation. How it is done:
Determination of the utility of compounds having Formula (I) as binders to and inhibitors of anti-apoptotic Bcl-2 proteins was performed using the Time Resolved-Fluorescence Resonance Energy Transfer (TR-FRET) Assay. Tb-anti-GST antibody was purchased from Invitrogen (Catalog No. PV4216).
Representative compounds were serially diluted in dimethyl sulfoxide (DMSO) starting at 50 μM (2x starting concentration; 10% DMSO) and 10 μL were transferred into a 384-well plate. The samples are then mixed on a shaker for 1 minute and incubated for an additional 3 hours at room temperature. For each assay, the probe/antibody and protein/probe/antibody were included on each assay plate as negative and positive controls, respectively. Fluorescence was measured on the ENVISION plate reader (Perkin Elmer) using a 340/35 nm excitation filter and 520/525 (F-Bak peptide) and 495/510 nm (Tb-labeled […] antibody) emission filters. Inhibition constants (Ki) are shown in TABLE 2 below and were determined using Wang's equation (Wang Z.-X. An Exact Mathematical Expression For Describing Competitive Binding Of Two Different Ligands To A Protein Molecule. FEBS Lett. 1995, 360:111-4).
The inhibition constant (Ki) is the dissociation constant of an enzyme-inhibitor complex or a protein/small molecule complex, wherein the small molecule is inhibiting binding of one protein to another protein. So a large Ki value indicates a low binding affinity and a small Ki value indicates a high binding affinity.
The compounds are therefore expected to have utility in treatment of diseases during which anti-apoptotic Bcl-2 protein is expressed.
Background: In TR-FRET formats the signal depends on donor and acceptor labels being close together.
Turning to `O=C(NS(=O)(=O)c1cccc([N+](=O)[O-])c1)c1ccc(N2CCN(Cc3ccccc3-c3ccc(Cl)cc3)CC2)cc1` [Example 5, 4-{4-[(4′-chloro-1,1′-biphenyl-2-yl)methyl]piperazin-1-yl}-N-[(3-nitrophenyl)sulfonyl]benzamide], the affinity corresponds to a Ki of 185 nM.

With `O=C(NS(=O)(=O)c1ccccc1)c1ccc(N2CCN(Cc3ccccc3-c3ccc(Cl)cc3)CC2)cc1` [Example 6, 4-{4-[(4′-chloro-1,1′-biphenyl-2-yl)methyl]piperazin-1-yl}-N-(phenylsulfonyl)benzamide], the Ki came to 212 nM.

In turn, `O=C(NS(=O)(=O)c1cccc([N+](=O)[O-])c1)c1ccc(N2CCN(Cc3ccccc3-c3ccc(Cl)cc3)CC2)cc1OCCc1ccccc1` [Example 8, 4-{4-[(4′-chloro-1,1′-biphenyl-2-yl)methyl]piperazin-1-yl}-N-[(3-nitrophenyl)sulfonyl]-2-(2-phenylethoxy)benzamide] displayed a Ki of 975 nM.

For `O=C(NS(=O)(=O)c1cccc([N+](=O)[O-])c1)c1ccc(N2CCN(Cc3ccccc3-c3ccc(Cl)cc3)CC2)cc1Oc1ccccc1` [Example 9, 4-{4-[(4′-chloro-1,1′-biphenyl-2-yl)methyl]piperazin-1-yl}-N-[(3-nitrophenyl)sulfonyl]-2-phenoxybenzamide], the inhibition constant (Ki) turned out to be 26.5 nM.

As to `O=C(NS(=O)(=O)c1ccc(Br)cc1)c1ccc(N2CCN(Cc3ccccc3-c3ccc(Cl)cc3)CC2)cc1` [Example 11, N-[(4-bromophenyl)sulfonyl]-4-{4-[(4′-chloro-1,1′-biphenyl-2-yl)methyl]piperazin-1-yl}benzamide], the affinity, expressed as Ki, was 208 nM. The value for `O=C(NS(=O)(=O)c1cccc([N+](=O)[O-])c1)c1ccc(N2CCN(Cc3ccccc3-c3ccc(Cl)cc3)CC2)cc1Sc1ccccc1` [Example 13, 4-{4-[(4′-chloro-1,1′-biphenyl-2-yl)methyl]piperazin-1-yl}-N-[(3-nitrophenyl)sulfonyl]-2-(phenylthio)benzamide] was 72.9 nM; that for `O=C(NS(=O)(=O)c1cccc([N+](=O)[O-])c1)c1ccc(N2CCN(Cc3ccccc3-c3ccc(Cl)cc3)CC2)cc1NCc1ccccc1` [Example 14, 2-(benzylamino)-4-{4-[(4′-chloro-1,1′-biphenyl-2-yl)methyl]piperazin-1-yl}-N-[(3-nitrophenyl)sulfonyl]benzamide] was 749 nM. Regarding `O=C(NS(=O)(=O)c1cccc([N+](=O)[O-])c1)c1ccc(N2CCN(Cc3ccccc3-c3ccc(Cl)cc3)CC2)cc1Cc1ccccc1` [Example 15, 2-benzyl-4-{4-[(4′-chloro-1,1′-biphenyl-2-yl)methyl]piperazin-1-yl}-N-[(3-nitrophenyl)sulfonyl]benzamide], the Ki is 48 nM. As for `O=C(NS(=O)(=O)c1ccc([N+](=O)[O-])cc1)c1ccc(N2CCN(Cc3ccccc3-c3ccc(Cl)cc3)CC2)cc1` [Example 16, 4-{4-[(4′-chloro-1,1′-biphenyl-2-yl)methyl]piperazin-1-yl}-N-[(4-nitrophenyl)sulfonyl]benzamide], the figure is 273 nM; as for `O=C(NS(=O)(=O)c1cccc([N+](=O)[O-])c1)c1ccc(N2CCN(Cc3ccccc3-c3ccc(Cl)cc3)CC2)cc1CCc1ccccc1` [Example 18, 4-{4-[(4′-chloro-1,1′-biphenyl-2-yl)methyl]piperazin-1-yl}-N-[(3-nitrophenyl)sulfonyl]-2-(2-phenylethyl)benzamide], 746 nM.

The compound `O=C(NS(=O)(=O)c1ccc(F)cc1)c1ccc(N2CCN(Cc3ccccc3-c3ccc(Cl)cc3)CC2)cc1` [Example 19, 4-{4-[(4′-chloro-1,1′-biphenyl-2-yl)methyl]piperazin-1-yl}-N-[(4-fluorophenyl)sulfonyl]benzamide] gave a Ki of 403 nM. The value for `O=C(NS(=O)(=O)c1cccc(F)c1)c1ccc(N2CCN(Cc3ccccc3-c3ccc(Cl)cc3)CC2)cc1` [Example 20, 4-{4-[(4′-chloro-1,1′-biphenyl-2-yl)methyl]piperazin-1-yl}-N-[(3-fluorophenyl)sulfonyl]benzamide] was 280 nM; that for `O=C(NS(=O)(=O)c1cccc([N+](=O)[O-])c1)c1ccc(N2CCN(Cc3ccccc3-c3ccc(Cl)cc3)CC2)cc1[S+]([O-])c1ccccc1` (stereo not shown) [Example 21, 4-{4-[(4′-chloro-1,1′-biphenyl-2-yl)methyl]piperazin-1-yl}-N-[(3-nitrophenyl)sulfonyl]-2-(phenylsulfinyl)benzamide] was 87.3 nM; that for `O=C(NS(=O)(=O)c1ccc([N+](=O)[O-])cc1)c1ccc(N2CCN(Cc3ccccc3-c3ccc(Cl)cc3)CC2)cc1Oc1ccccc1` [Example 22, 4-{4-[(4′-chloro-1,1′-biphenyl-2-yl)methyl]piperazin-1-yl}-N-[(4-nitrophenyl)sulfonyl]-2-phenoxybenzamide] was 17.3 nM. For the compound `O=C(NS(=O)(=O)c1cccc(F)c1)c1ccc(N2CCN(Cc3ccccc3-c3ccc(Cl)cc3)CC2)cc1Oc1ccccc1` [Example 23, 4-{4-[(4′-chloro-1,1′-biphenyl-2-yl)methyl]piperazin-1-yl}-N-[(3-fluorophenyl)sulfonyl]-2-phenoxybenzamide], the Ki came out at 27.3 nM.

`O=C(NS(=O)(=O)c1ccc(F)cc1)c1ccc(N2CCN(Cc3ccccc3-c3ccc(Cl)cc3)CC2)cc1Oc1ccccc1` [Example 24, 4-{4-[(4′-chloro-1,1′-biphenyl-2-yl)methyl]piperazin-1-yl}-N-[(4-fluorophenyl)sulfonyl]-2-phenoxybenzamide]: the Ki turned out to be 10.3 nM.

Compound `O=C(NS(=O)(=O)c1cccc([N+](=O)[O-])c1)c1ccc(N2CCN(Cc3ccccc3-c3ccc(Cl)cc3)CC2)cc1S(=O)(=O)c1ccccc1` [Example 26, 4-{4-[(4′-chloro-1,1′-biphenyl-2-yl)methyl]piperazin-1-yl}-N-[(3-nitrophenyl)sulfonyl]-2-(phenylsulfonyl)benzamide] displayed a Ki of 627 nM. Consider `O=C(NS(=O)(=O)c1ccc(Cl)c([N+](=O)[O-])c1)c1ccc(N2CCN(Cc3ccccc3-c3ccc(Cl)cc3)CC2)cc1Oc1ccccc1` [Example 27, 4-{4-[(4′-chloro-1,1′-biphenyl-2-yl)methyl]piperazin-1-yl}-N-[(4-chloro-3-nitrophenyl)sulfonyl]-2-phenoxybenzamide], for which the affinity corresponds to a Ki of 4.16 nM.

Compound `CN(C)CCOc1cccc(-c2ccc(Cl)cc2)c1CN1CCN(c2ccc(C(=O)NS(=O)(=O)c3cccc([N+](=O)[O-])c3)c(Oc3cccc4[nH]ccc34)c2)CC1` [Example 28, 4-[4-({4′-chloro-3-[2-(dimethylamino)ethoxy]-1,1′-biphenyl-2-yl}methyl)piperazin-1-yl]-2-(1H-indol-4-yloxy)-N-[(3-nitrophenyl)sulfonyl]benzamide] registered a Ki of 0.125 nM.

On to `CN(C)CCOc1cccc(-c2ccc(Cl)cc2)c1CN1CCN(c2ccc(C(=O)NS(=O)(=O)c3ccccc3)c(Oc3cccc4[nH]ccc34)c2)CC1` [Example 29, 4-[4-({4′-chloro-3-[2-(dimethylamino)ethoxy]-1,1′-biphenyl-2-yl}methyl)piperazin-1-yl]-2-(1H-indol-4-yloxy)-N-(phenylsulfonyl)benzamide], for which the affinity corresponds to a Ki of 2.27 nM. The value for `CC1(C)CCC(CN2CCN(c3ccc(C(=O)NS(=O)(=O)c4cccc([N+](=O)[O-])c4)c(Oc4ccc5[nH]ccc5c4)c3)CC2)=C(c2ccc(Cl)cc2)C1` [Example 30, 4-(4-{[2-(4-chlorophenyl)-4,4-dimethylcyclohex-1-en-1-yl]methyl}piperazin-1-yl)-2-(1H-indol-5-yloxy)-N-[(3-nitrophenyl)sulfonyl]benzamide] was 0.209 nM; that for `CC1(C)CCC(CN2CCN(c3ccc(C(=O)NS(=O)(=O)c4ccccc4)c(Oc4ccc5[nH]ccc5c4)c3)CC2)=C(c2ccc(Cl)cc2)C1` [Example 31, 4-(4-{[2-(4-chlorophenyl)-4,4-dimethylcyclohex-1-en-1-yl]methyl}piperazin-1-yl)-2-(1H-indol-5-yloxy)-N-(phenylsulfonyl)benzamide] was 21.6 nM; that for `CC1(C)CCC(CN2CCN(c3ccc(C(=O)NS(=O)(=O)c4cccc(C#N)c4)c(Oc4ccc5[nH]ccc5c4)c3)CC2)=C(c2ccc(Cl)cc2)C1` [Example 32, 4-(4-{[2-(4-chlorophenyl)-4,4-dimethylcyclohex-1-en-1-yl]methyl}piperazin-1-yl)-N-[(3-cyanophenyl)sulfonyl]-2-(1H-indol-5-yloxy)benzamide] was 5.94 nM. The value for `CC1(C)CCC(CN2CCN(c3ccc(C(=O)NS(=O)(=O)c4cccc(C(F)(F)F)c4)c(Oc4ccc5[nH]ccc5c4)c3)CC2)=C(c2ccc(Cl)cc2)C1` [Example 33, 4-(4-{[2-(4-chlorophenyl)-4,4-dimethylcyclohex-1-en-1-yl]methyl}piperazin-1-yl)-2-(1H-indol-5-yloxy)-N-{[3-(trifluoromethyl)phenyl]sulfonyl}benzamide] was 4.09 nM; that for `CC1(C)CCC(CN2CCN(c3ccc(C(=O)NS(=O)(=O)c4cccc(Cl)c4)c(Oc4ccc5[nH]ccc5c4)c3)CC2)=C(c2ccc(Cl)cc2)C1` [Example 34, 4-(4-{[2-(4-chlorophenyl)-4,4-dimethylcyclohex-1-en-1-yl]methyl}piperazin-1-yl)-N-[(3-chlorophenyl)sulfonyl]-2-(1H-indol-5-yloxy)benzamide] was 5.14 nM.

These data come from patent US8426422B2, “Apoptosis-inducing agents for the treatment of cancer and immune and autoimmune diseases” (Abbvie Inc., priority 2009, dated 2013).
